The subject of this data set is GENE-TOX genotoxicity assays, various organisms and cells. The data set can be described thus: GENE-TOX mutagenicity studies. To be noted: for call: Assay Type: In vivo carcinogenicity studies.
The mark [1] stands for this setting: Species/Cell Type: Allium cepa, Assay Type: Chromosome aberrations, Assay Code: ALC+D, Dose Response: With dose response, Evaluation Type: Evaluation A (Pre-1980).
[2] abbreviates: Species/Cell Type: Salmonella typhimurium (one or more of the five standard strains: TA98, TA100, TA1535, TA1537, and TA1538), Assay Type: Histidine reverse gene mutation, Ames assay, Assay Code: SALT, Evaluation Type: Evaluation A (Pre-1980).
Setting [3] is: Species/Cell Type: Drosophila melanogaster, Assay Type: Sex-linked recessive lethal gene mutation, Assay Code: SRL-, Evaluation Type: Evaluation A (Pre-1980).
Setting [4] is: Species/Cell Type: Salmonella typhimurium (one or more of the five standard strains: TA98, TA100, TA1535, TA1537, and TA1538), Assay Type: Histidine reverse gene mutation, Ames assay, Assay Code: SAL-, Evaluation Type: Evaluation A (Pre-1980).

These results are taken from PubChem BioAssay AID1259408 (Genetic Toxicology Data Bank (GENE-TOX), 2018).

The structures appear in SMILES notation. Calls of active or inactive are those of the source. No rule for the calls is given here.

As to `CCn1c(=O)n(C)c2c(=O)n(C)c(=O)n(C)c21`, the mutagenic call under setting [1] was “active; positive”.
On to `CN1CCN(CCCN2c3ccccc3S(=O)c3ccccc32)CC1`, for which the mutagenic call (Species/Cell Type: Human lymphocytes, Assay Type: Sister-chromatid exchange (SCE) in vitro, Assay Code: SCLT, Evaluation Type: Evaluation B (Post-1980)) is on record as “no conclusion” and the mutagenic call (Species/Cell Type: Human, Assay Type: Sister-chromatid exchange (SCE) in vitro, Assay Code: SC1T, Evaluation Type: Evaluation B (Post-1980)) is on record as “no conclusion”.
With `NS(=O)(=O)c1cc2c(cc1Cl)NC=NS2(=O)=O`, the mutagenic call under setting [2] is reported as “no conclusion”.
As for `COc1ccc(C(c2ccc(OC)cc2)C(Cl)(Cl)Cl)cc1`, the mutagenic call was “no conclusion” (Species/Cell Type: Bacillus subtilis (H17 vs M45), Assay Type: Rec-assay, spot test, DNA effects (bacterial DNA repair), Assay Code: REWT, Evaluation Type: Evaluation A (Pre-1980)); “inactive; negative” under setting [3]; “inactive; negative” (Species/Cell Type: Escherichia coli WP2 UVRA, Assay Type: Tryptophan reverse gene mutation, Assay Code: WPU-*, Activation: With metabolic activation, Evaluation Type: Evaluation A (Pre-1980)); “no conclusion” (Species/Cell Type: Escherichia coli polA (W3119 vs P3478), Assay Type: Rec-assay, DNA effects (bacterial DNA repair), Assay Code: RE1T, Evaluation Type: Evaluation A (Pre-1980)); “inactive; negative” (Species/Cell Type: Fischer rat embryo (RLV/1706) cells, Assay Type: Cell transformation, viral enhanced, Assay Code: CTR-, Evaluation Type: Evaluation A (Pre-1980)); “inactive; negative” (Species/Cell Type: Human diploid fibroblasts, Assay Type: Unscheduled DNA synthesis (UDS) in vitro, DNA effects, Assay Code: UDH-, Evaluation Type: Evaluation A (Pre-1980)). Further, the mutagenic call by setting is: (Species/Cell Type: Mouse (BALB/c-3T3) cells, Assay Type: Cell transformation, Assay Code: CTB+D, Dose Response: With dose response, Evaluation Type: Evaluation A (Pre-1980)) “active; positive”; (Species/Cell Type: Saccharomyces cerevisiae, Assay Type: Mitotic recombination or gene conversion, Assay Code: YEH-, Evaluation Type: Evaluation A (Pre-1980)) “inactive; negative”; under setting [4], “inactive; negative”; (Species/Cell Type: Syrian hamster embryo (SHE) cells, Assay Type: Cell transformation, clonal assay, Assay Code: CTC-, Evaluation Type: Evaluation A (Pre-1980)) “inactive; negative”. Moreover, the call (Species/Cell Type: Nonhuman, Assay Code: CCG-, Evaluation Type: Evaluation A (Pre-1980)) is “inactive; negative”.
On to `[Cl][Ge]([Cl])([Cl])[Cl]`, for which the mutagenic call (Species/Cell Type: Bacillus subtilis (H17 vs M45), Assay Type: Rec-assay, spot test, DNA effects (bacterial DNA repair), Assay Code: REW+, Evaluation Type: Evaluation A (Pre-1980)) is “active; positive”.
For `Cc1cc(Cl)ccc1OCCCC(=O)O`, the mutagenic call under setting [3] is “inactive; negative”; the mutagenic call (Species/Cell Type: Salmonella typhimurium, Serratia marcesens, Assay Type: Forward and reverse gene mutation, host-mediated assay, Assay Code: HM2-, Evaluation Type: Evaluation A (Pre-1980)) is “inactive; negative”.
Turning to `O=C(O)C1(O)C[C@@H](O)C(O)[C@H](O)C1` (stereo partly specified), under setting [4], the mutagenic call was “inactive; negative”.
For the compound `COc1cc(C)c(-c2csc(N(C)C(=O)Nc3ccc(Cl)cc3)n2)cc1OC`, the mutagenic call (Species/Cell Type: Salmonella typhimurium, Assay Type: Forward and reverse gene mutation, host-mediated assay, Assay Code: HMA+, Evaluation Type: Evaluation A (Pre-1980)) is “active; positive”.
`Nc1c(O)ccc2ccccc12`: the mutagenic call is, setting by setting: (Species/Cell Type: Escherichia coli polA (W3119 vs P3478), Assay Type: Rec-assay, DNA effects (bacterial DNA repair), Assay Code: RE1+, Evaluation Type: Evaluation A (Pre-1980)) “active; positive”; under setting [2], “no conclusion”.
Take `Nc1ccc(Br)cc1`: the mutagenic call runs as follows: (Species/Cell Type: Mouse, Sex: Male, Assay Type: Sperm morphology, Assay Code: SPI-, Evaluation Type: Evaluation A (Pre-1980)) “inactive; negative”; (Species/Cell Type: Nonhuman, Assay Type: Sister-chromatid exchange (SCE) in vivo, Assay Code: SC3T, Evaluation Type: Evaluation B (Post-1980)) “no conclusion”.
Turning to `O=P(N1C2COCC21)(N1C2COCC21)N1C2COCC21` (stereo unspecified), the mutagenic call (Species/Cell Type: Drosophila melanogaster, Assay Type: Sex-linked recessive lethal gene mutation, Assay Code: SRL+, Evaluation Type: Evaluation A (Pre-1980)) is “active; positive”.
As to `Cc1cc2ccccc2oc1=O`, the mutagenic call under setting [1] was “active; positive”.
For `COC(=O)CN(CC(=O)OC)C1C[C@H]1N(CC(=O)OC)CC(=O)OC` (stereo partly specified), the mutagenic call (Species/Cell Type: Chinese hamster lung (V79) cells, Assay Type: Forward gene mutation at the HPRT or ouabain locus, Assay Code: V79+, Evaluation Type: Evaluation A (Pre-1980)) was “active; positive”.
In the case of `Nc1ccc2c(n1)[nH]c1ccccc12`, the mutagenic call (Species/Cell Type: Human, Assay Type: Sister-chromatid exchange (SCE) in vitro, Assay Code: SC1+D*, Activation: With metabolic activation, Dose Response: With dose response, Evaluation Type: Evaluation B (Post-1980)) was “active; positive”.
With `CN1C[C@H](C(=O)N[C@]2(C)O[C@@]3(O)[C@@H]4CCCN4C(=O)[C@H](Cc4ccccc4)N3C2=O)C=C2c3cccc4[nH]cc(c34)C[C@H]21`, the mutagenic call (Species/Cell Type: Rodents, Sex: Male, Assay Type: Dominant lethal test, Assay Code: DLT+, Evaluation Type: Evaluation A (Pre-1980)) is “active; positive”.
For the compound `Cn1c(=O)c2c(n(C)c1=O)n(C)c(=O)n2C`, the mutagenic call under setting [1] is “active; positive”.
Consider `ClC=C(Cl)Cl`, for which the mutagenic call is “inactive; negative” under setting [3]; “active; positive” (Species/Cell Type: Fischer rat embryo (RLV/1706) cells, Assay Type: Cell transformation, viral enhanced, Assay Code: CTR+, Evaluation Type: Evaluation A (Pre-1980)); “active; positive” (Species/Cell Type: Mammalian polychromatic erythrocytes, Assay Type: Micronucleus test, chromosome aberrations, Assay Code: MNT+, Evaluation Type: Evaluation B (Post-1980)); “active; positive” (Species/Cell Type: Mouse, Sex: Female, Assay Type: Spot test, gene mutation, Assay Code: MST+, Evaluation Type: Evaluation A (Pre-1980)); “active; positive” (Species/Cell Type: Mouse, Sex: Male, Assay Type: Sperm morphology, Assay Code: SPI+, Evaluation Type: Evaluation A (Pre-1980)); “no conclusion” (Species/Cell Type: Nonhuman, Assay Type: Sister-chromatid exchange (SCE) in vitro, Assay Code: SC2T, Evaluation Type: Evaluation B (Post-1980)). The mutagenic call reads like this: (Species/Cell Type: Saccharomyces cerevisiae, Assay Type: Forward and reverse gene mutation, mitotic recombination and gene conversion, host-mediated assay, Assay Code: HME+, Evaluation Type: Evaluation A (Pre-1980)) “active; positive”; (Species/Cell Type: Saccharomyces cerevisiae, Assay Type: Mitotic recombination or gene conversion, Assay Code: YEC+, Evaluation Type: Evaluation A (Pre-1980)) “active; positive”; (Species/Cell Type: Saccharomyces cerevisiae, Assay Type: Mitotic recombination or gene conversion, Assay Code: YEH+, Evaluation Type: Evaluation A (Pre-1980)) “active; positive”; (Species/Cell Type: Saccharomyces cerevisiae, Assay Type: Reverse gene mutation, Assay Code: YER+, Evaluation Type: Evaluation A (Pre-1980)) “active; positive”; under setting [2], “no conclusion”; (Species/Cell Type: Tradescantia species, Assay Type: Gene mutation, Assay Code: TRM+, Evaluation Type: Evaluation A (Pre-1980)) “active; positive”. In addition, for the setting “Species/Cell Type: Nonhuman, Assay Code: CCG+L, Evaluation Type: Evaluation A (Pre-1980)”, the call is “active; positive”.
Turning to `O=S1(=O)OC(c2ccc(O)cc2)(c2ccc(O)cc2)c2ccccc21`, the mutagenic call (Species/Cell Type: Bacillus subtilis (H17 vs M45T), Assay Type: Rec-assay, spot test, DNA effects (bacterial DNA repair), Assay Code: REXT, Evaluation Type: Evaluation A (Pre-1980)) is “no conclusion”.
Regarding `O.O.O.O.O.O.[Cl-].[Cl-].[Cl-].[Fe+3]`, the mutagenic call (Species/Cell Type: Nonhuman, Assay Type: Sister-chromatid exchange (SCE) in vitro, Assay Code: SC2-, Evaluation Type: Evaluation B (Post-1980)) is “inactive; negative”.
Regarding `CCCCC[CH2][Hg][Br]`, the mutagenic call under setting [1] is “active; positive”.
